Patent US20200361930A1, “BIFUNCTIONAL MOLECULES THAT DEGRADE EGFR” (Hoffmann-La Roche Inc., priority 2018, published 2020)

Molecular target: T1, EGFR T790M/L858R/C797S (Homo sapiens, UniProt P00533, C797S/L858R/T790M)
T1 construct: expressed in transfected cells; host or cells: BaF3 (Ba/F3) cells, lentivirally transduced with a pCDH vector under the PGK promoter
Assay: EGFR degradation assay (cellular), FRET quantification of total EGFR
Format: cell-based
Settings: BaF3 EGFR T790M/L858R/C797S cells, 4 hours incubation, total EGFR FRET signal, top concentration 1 μM; read-out: IC50 value (BaF3 EGFR T790M/L858R/C797S degradation)
Experimental: EGFR Degradation Assay (Cellular)
The BaF3 parental line was purchased from DSMZ and grown in RPMI media supplemented with 10% FBS and 10 ng/mL interleukin 3 (IL-3) (Thermo Fisher Scientific). EGFR mutants (T790M/L853R, T790M/L853R/C797S) were cloned into the pCDH lentiviral vector (SystemBio) under the control of a PGK promoter and confirmed by DNA sequencing. The resulting gene expression vector for each mutant was mixed with packaging vectors and cotransfected into 2×10E6 HEK293T cells (ATCC) in 10 mL of DMEM media to generate lentiviral particles according to the manufacturers protocol (Origene).
Three days post-transfection, the viral supernatant was harvested and filtered. In one well of a 12-well plate, 0.5 mL of viral supernatant was added to 2E6 Ba/F3 cells contained in 1.5 mL of RPMI media including 10% FBS, 10 ng/mL IL-3, and 5 μg/mL polybrene (Invitrogen). The plate was centrifuged at 2,000 rpm for 1 hour at room temperature and infected cells were kept in a tissue culture incubator overnight at 37° C. The cells were washed once in fresh BaF3 media and reseeded at 0.5E6 cells/well of a 12-well plate in media supplemented with 0.5 μg/mL puromycin. The cells were maintained in this media for 3 weeks. IL-3-independent, EGFR mutant transformed cells were routinely maintained in RPMI medium supplemented with 10% FBS.
RPMI 1640 no-phenol red medium and fetal bovine serum (FBS) were purchased from Gibco (Grand Island, N.Y., USA). EGFR total kit and EGFR phospho-Y1068 kit were purchased from Cisbio (Bedford, Mass., USA). BaF3 EGFR mutant cell lines (EGFR T790M/L858R/C797S) cell line was generated in house, according to the protocol reported above. Cell culture flasks and 384-well microplates were acquired from VWR (Radnor, Pa., USA).
EGFR degradation was determined based on quantification of FRET signal using EGFR total kit. The FRET signal detected correlates with total EGFR protein level in cells. Briefly, test compounds were added to the 384-well plate from a top concentration of 1 μM with 11 points, half log titration in quadruplicates. Then, BaF3 EGFR mutant cell lines (EGFR T790M/L858R/C797S) were added into 384-well plates at a cell density of 10000 cells per well. The plates were kept at 37° C. with 5% CO2 for 4 hours. After 4-hour incubation, 4× lysis buffer was added to the cells, and then then microplate was agitated on plate shaker at 500 rpm for 30 minutes at room temperature. Next, total EGFR antibody solution was added to the cells and the cells were incubated for another 4 hours at room temperature. Finally, FRET signal was acquired on EnVision™ Multilabel Reader (PerkinElmer, Santa Clara, Calif., USA). The cells treated in the absence of the test compound were the negative control and lysis buffer with antibody solution only were the positive control.

T1 sequence (P00533 25-1210 T790M/C797S/L858R): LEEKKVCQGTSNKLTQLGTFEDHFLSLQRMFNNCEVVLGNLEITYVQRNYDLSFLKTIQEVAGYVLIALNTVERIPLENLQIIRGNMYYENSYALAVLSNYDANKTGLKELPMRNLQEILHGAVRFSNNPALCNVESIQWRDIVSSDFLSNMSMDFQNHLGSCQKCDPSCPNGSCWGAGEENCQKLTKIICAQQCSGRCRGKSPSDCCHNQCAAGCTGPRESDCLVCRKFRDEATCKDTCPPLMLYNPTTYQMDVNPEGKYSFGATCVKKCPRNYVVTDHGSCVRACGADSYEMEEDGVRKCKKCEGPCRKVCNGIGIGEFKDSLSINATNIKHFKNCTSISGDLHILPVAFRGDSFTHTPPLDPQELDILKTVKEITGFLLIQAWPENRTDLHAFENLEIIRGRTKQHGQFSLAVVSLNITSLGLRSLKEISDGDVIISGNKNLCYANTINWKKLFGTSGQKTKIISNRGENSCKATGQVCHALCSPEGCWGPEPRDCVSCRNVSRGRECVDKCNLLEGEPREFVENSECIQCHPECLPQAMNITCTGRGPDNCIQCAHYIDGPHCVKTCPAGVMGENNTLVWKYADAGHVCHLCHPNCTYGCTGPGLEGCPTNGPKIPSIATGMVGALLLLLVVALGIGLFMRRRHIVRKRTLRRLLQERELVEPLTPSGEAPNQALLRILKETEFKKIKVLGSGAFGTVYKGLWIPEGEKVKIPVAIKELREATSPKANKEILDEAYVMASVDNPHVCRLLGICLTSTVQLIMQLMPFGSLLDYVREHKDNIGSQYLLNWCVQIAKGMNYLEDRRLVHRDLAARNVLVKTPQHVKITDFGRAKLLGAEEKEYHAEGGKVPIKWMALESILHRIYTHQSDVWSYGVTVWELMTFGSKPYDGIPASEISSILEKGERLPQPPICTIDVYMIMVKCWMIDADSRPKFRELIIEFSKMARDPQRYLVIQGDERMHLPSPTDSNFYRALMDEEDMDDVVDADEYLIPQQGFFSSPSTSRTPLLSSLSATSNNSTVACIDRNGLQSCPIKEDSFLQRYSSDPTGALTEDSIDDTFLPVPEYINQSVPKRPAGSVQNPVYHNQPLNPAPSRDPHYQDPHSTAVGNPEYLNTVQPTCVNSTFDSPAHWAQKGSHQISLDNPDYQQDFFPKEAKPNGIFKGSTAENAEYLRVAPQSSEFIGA

O=C1CCC(N2C(=O)c3cccc(NCCCCCC(=O)N4CCN(Cc5ccc(C#Cc6ccc7c(c6)C(=O)N(C(C(=O)Nc6nccs6)c6ccccc6)C7)cc5)CC4)c3C2=O)C(=O)N1 (racemic) [Example 1, (2RS)-2-[6-[2-[4-[[4-[6-[[2-[(3RS)-2,6-Dioxo-3-piperidyl]-1,3-dioxo-isoindolin-4-yl]amino]hexanoyl]piperazin-1-yl]methyl]phenyl]ethynyl]-1-oxo-isoindolin-2-yl]-2-phenyl-N-thiazol-2-yl-acetamide]
DC50: 40 nM

O=C1CCC(N2C(=O)c3cccc(NCCCC(=O)N4CCC(NC(=O)c5ccc(C#Cc6ccc7c(c6)C(=O)N(C(C(=O)Nc6nccs6)c6ccccc6)C7)cn5)CC4)c3C2=O)C(=O)N1 (racemic) [Example 2, N-[1-[4-[[2-[(3RS)-2,6-Dioxo-3-piperidyl]-1,3-dioxo-isoindolin-4-yl]amino]butanoyl]-4-piperidyl]-5-[2-[3-oxo-2-[(1RS)-2-oxo-1-phenyl-2-(thiazol-2-ylamino)ethyl]isoindolin-5-yl]ethynyl]pyridine-2-carboxamide]
DC50: 21 nM

O=C1CCC(N2C(=O)c3cccc(NCCCC(=O)N4CCN(Cc5ccc(C#Cc6ccc7c(c6)C(=O)N(C(C(=O)Nc6nccs6)c6ccccc6)C7)cc5)CC4)c3C2=O)C(=O)N1 (racemic) [Example 3, (2RS)-2-[6-[2-[4-[[4-[4-[[2-[(3RS)-2,6-Dioxo-3-piperidyl]-1,3-dioxo-isoindolin-4-yl]amino]butanoyl]piperazin-1-yl]methyl]phenyl]ethynyl]-1-oxo-isoindolin-2-yl]-2-phenyl-N-thiazol-2-yl-acetamide]
DC50: 35 nM

O=C1CCC(N2C(=O)c3cccc(NCCCC(=O)N4CCN(Cc5ccc(C#Cc6ccc7c(c6)C(=O)N(C(C(=O)Nc6nccs6)c6ccccc6)C7)cn5)CC4)c3C2=O)C(=O)N1 (racemic) [Example 4, (2RS)-2-[6-[2-[6-[[4-[4-[[2-[(3RS)-2,6-Dioxo-3-piperidyl]-1,3-dioxo-isoindolin-4-yl]amino]butanoyl]piperazin-1-yl]methyl]-3-pyridyl]ethynyl]-1-oxo-isoindolin-2-yl]-2-phenyl-N-thiazol-2-yl-acetamide]
DC50: 14 nM

O=C1CCC(N2C(=O)c3cccc(NCC(=O)N4CCC(NC(=O)c5ccc(C#Cc6ccc7c(c6)C(=O)N(C(C(=O)Nc6nccs6)c6ccccc6)C7)cn5)CC4)c3C2=O)C(=O)N1 (racemic) [Example 5, N-[1-[2-[[2-[(3RS)-2,6-Dioxo-3-piperidyl]-1,3-dioxo-isoindolin-4-yl]amino]acetyl]-4-piperidyl]-5-[2-[3-oxo-2-[(1RS)-2-oxo-1-phenyl-2-(thiazol-2-ylamino)ethyl]isoindolin-5-yl]ethynyl]pyridine-2-carboxamide]
DC50: 18 nM

O=C1CCC(N2C(=O)c3cccc(NCCCCN4CCC(NC(=O)c5ccc(C#Cc6ccc7c(c6)C(=O)N(C(C(=O)Nc6nccs6)c6ccccc6)C7)cn5)CC4)c3C2=O)C(=O)N1 (racemic) [Example 6, N-[1-[4-[[2-[(3RS)-2,6-Dioxo-3-piperidyl]-1,3-dioxo-isoindolin-4-yl]amino]butyl]-4-piperidyl]-5-[2-[3-oxo-2-[(1RS)-2-oxo-1-phenyl-2-(thiazol-2-ylamino)ethyl]isoindolin-5-yl]ethynyl]pyridine-2-carboxamide]
DC50: 21 nM

O=C1CCC(N2C(=O)c3cccc(NCCCC(=O)N4CCC(NC(=O)c5ccc(C#Cc6ccc7c(c6)C(=O)N(C(C(=O)Nc6nccs6)c6cc(F)ccc6O)C7)cn5)CC4)c3C2=O)C(=O)N1 (racemic) [Example 7, N-[1-[4-[[2-[(3RS)-2,6-Dioxo-3-piperidyl]-1,3-dioxo-isoindolin-4-yl]amino]butanoyl]-4-piperidyl]-5-[2-[2-[(1RS)-1-(5-fluoro-2-hydroxy-phenyl)-2-oxo-2-(thiazol-2-ylamino)ethyl]-3-oxo-isoindolin-5-yl]ethynyl]pyridine-2-carboxamide]
DC50: 12 nM

O=C1CCC(N2C(=O)c3cccc(NCCCCN4CCC(NC(=O)c5ncc(C#Cc6ccc7c(c6)C(=O)N(C(C(=O)Nc6nccs6)c6ccccc6)C7)cc5F)CC4)c3C2=O)C(=O)N1 (racemic) [Example 8, N-[1-[4-[[2-[(3RS)-2,6-Dioxo-3-piperidyl]-1,3-dioxo-isoindolin-4-yl]amino]butyl]-4-piperidyl]-3-fluoro-5-[2-[3-oxo-2-[(1RS)-2-oxo-1-phenyl-2-(thiazol-2-ylamino)ethyl]isoindolin-5-yl]ethynyl]pyridine-2-carboxamide]
DC50: 20 nM

O=C1CCC(N2C(=O)c3cccc(NCCCCN4CCC(NC(=O)c5ccc(C#Cc6ccc7c(c6)C(=O)N(C(C(=O)Nc6ccccn6)c6ccccc6)C7)cn5)CC4)c3C2=O)C(=O)N1 (racemic) [Example 9, N-[1-[4-[[2-[(3RS)-2,6-Dioxo-3-piperidyl]-1,3-dioxo-isoindolin-4-yl]amino]butyl]-4-piperidyl]-5-[2-[3-oxo-2-[(1RS)-2-oxo-1-phenyl-2-(2-pyridylamino)ethyl]isoindolin-5-yl]ethynyl]pyridine-2-carboxamide]
DC50: 52 nM

O=C1CCC(N2C(=O)c3cccc(NCCCCN4CCC(NC(=O)c5ccc(C#Cc6ccc7c(c6)C(=O)N(C(C(=O)Nc6nccs6)c6cc(F)ccc6O)C7)cn5)CC4)c3C2=O)C(=O)N1 (racemic) [Example 10, N-[1-[4-[[2-[(3RS)-2,6-Dioxo-3-piperidyl]-1,3-dioxo-isoindolin-4-yl]amino]butyl]-4-piperidyl]-5-[2-[2-[(1RS)-1-(5-fluoro-2-hydroxy-phenyl)-2-oxo-2-(thiazol-2-ylamino)ethyl]-3-oxo-isoindolin-5-yl]ethynyl]pyridine-2-carboxamide]
DC50: 13 nM

O=C1CCC(N2C(=O)c3ccc(N4CCC(CN5CCC(NC(=O)c6ccc(C#Cc7ccc8c(c7)C(=O)N(C(C(=O)Nc7ccccn7)c7ccccc7)C8)cn6)CC5)CC4)cc3C2=O)C(=O)N1 (racemic) [Example 11, N-[1-[[1-[2-[(3RS)-2,6-Dioxo-3-piperidyl]-1,3-dioxo-isoindolin-5-yl]-4-piperidyl]methyl]-4-piperidyl]-5-[2-[3-oxo-2-[(1RS)-2-oxo-1-phenyl-2-(2-pyridylamino)ethyl]isoindolin-5-yl]ethynyl]pyridine-2-carboxamide]
DC50: 48 nM

O=C1CCC(N2C(=O)c3cccc(N4CCC(CC(=O)N5CCN(Cc6ccc(C#Cc7ccc8c(c7)C(=O)N(C(C(=O)Nc7ccccn7)c7ccccc7)C8)cn6)CC5)CC4)c3C2=O)C(=O)N1 (racemic) [Example 12, (2RS)-2-[6-[2-[6-[[4-[2-[1-[2-[(3RS)-2,6-Dioxo-3-piperidyl]-1,3-dioxo-isoindolin-4-yl]-4-piperidyl]acetyl]piperazin-1-yl]methyl]-3-pyridyl]ethynyl]-1-oxo-isoindolin-2-yl]-2-phenyl-N-(2-pyridyl)acetamide]
DC50: 38 nM
